IC50 data for 20 compounds are collected here from patent publication US9115092B2, “Substituted quinazoline and pyrido-pyrimidine derivatives” (Asana Biosciences, LLC, priority 2010, dated 2015).

For one assay, the system named is PC3 cells. Put plainly: XTT assay for cell viability, PC3 cells. It is filed as cell-based, human. The settings on record: Homo sapiens, PC-3, cell viability. As to the method: Using a commercial kit from Sigma Aldrich (Catalog #X34251) and following its protocol, PC3 cells in the log phase of growth were employed and seeded at an optimal density of 1000 cell/well on to 96 well plates and incubated for 24 h followed by the addition of compounds of formula (I) in serial dilutions. Compound dilutions were made in DMSO. The cells were incubated with the compounds of formula (I) for 96 h and XTT tetrazolium dye (Sigma, USA) was subsequently added and incubated at 37° C. After the color formation, absorbance was measured at 465 nm in a Spectramax® Gemini spectrophotometer. EC50 values were calculated using a sigmoidal dose response curve fit in GraphPad Prism® v5 software. The tested compounds of formula (I) which caused inhibition of PC3 cell proliferation as determined by this assay protocol are shown in Table 2.

A further assay addresses T1, mTOR kinase (Homo sapiens, UniProt P42345).
T1 construct: purchased Millipore, USA
Kind of assay: mTOR kinase TR-FRET assay. It is filed as biochemical. Conditions: read-out: mTO R. In outline: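 TR-FRET read-out (340 nm excitation, 615/665 nm emission) of Thr389 phosphorylation of a ULight-labeled p70 S6K peptide (50 nM) by mTOR, 20 μM ATP, 60 min room temperature after 60 min compound preincubation. Buffer HEPES pH 7.5 with MnCl2, EGTA; IC50 by sigmoidal dose-response.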
(In general: Time-resolved FRET reads energy transfer from a long-lived donor to a nearby acceptor.)

For assay [1], the target named is T2, PI3Kα (wild-type), P110/P85α (Homo sapiens, UniProt P42336).
T2 construct: made in house; host or cells: SF9 insect cells
T2 sequence (P42336 whole entry): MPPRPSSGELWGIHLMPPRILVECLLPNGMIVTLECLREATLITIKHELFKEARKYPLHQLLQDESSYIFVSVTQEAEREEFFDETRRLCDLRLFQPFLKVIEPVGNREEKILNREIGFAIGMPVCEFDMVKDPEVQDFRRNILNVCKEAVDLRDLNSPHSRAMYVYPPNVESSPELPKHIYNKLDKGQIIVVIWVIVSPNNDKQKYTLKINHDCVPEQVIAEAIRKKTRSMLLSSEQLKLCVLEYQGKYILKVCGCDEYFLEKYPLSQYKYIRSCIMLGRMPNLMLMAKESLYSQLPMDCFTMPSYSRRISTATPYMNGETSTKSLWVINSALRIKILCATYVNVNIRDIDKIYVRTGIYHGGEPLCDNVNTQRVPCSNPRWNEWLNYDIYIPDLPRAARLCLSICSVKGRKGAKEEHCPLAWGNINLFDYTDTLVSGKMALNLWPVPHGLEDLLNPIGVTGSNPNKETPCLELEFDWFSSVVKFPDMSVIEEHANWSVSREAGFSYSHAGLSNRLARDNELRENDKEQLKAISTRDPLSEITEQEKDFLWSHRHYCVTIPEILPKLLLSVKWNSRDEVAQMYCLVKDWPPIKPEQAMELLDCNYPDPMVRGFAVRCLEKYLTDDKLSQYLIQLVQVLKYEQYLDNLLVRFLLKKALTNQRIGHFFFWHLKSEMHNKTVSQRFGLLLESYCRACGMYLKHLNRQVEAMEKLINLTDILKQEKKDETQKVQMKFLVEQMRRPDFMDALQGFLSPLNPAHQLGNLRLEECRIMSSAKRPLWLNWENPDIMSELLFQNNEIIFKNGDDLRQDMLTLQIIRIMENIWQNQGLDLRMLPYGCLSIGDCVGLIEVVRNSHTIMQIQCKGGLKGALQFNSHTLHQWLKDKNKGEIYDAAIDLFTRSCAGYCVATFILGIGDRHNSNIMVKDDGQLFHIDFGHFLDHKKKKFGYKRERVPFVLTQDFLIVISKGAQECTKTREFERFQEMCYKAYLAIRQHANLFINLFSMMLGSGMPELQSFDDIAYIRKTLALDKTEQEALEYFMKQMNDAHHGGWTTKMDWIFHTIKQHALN
T2 sequence (P27986 whole entry partner): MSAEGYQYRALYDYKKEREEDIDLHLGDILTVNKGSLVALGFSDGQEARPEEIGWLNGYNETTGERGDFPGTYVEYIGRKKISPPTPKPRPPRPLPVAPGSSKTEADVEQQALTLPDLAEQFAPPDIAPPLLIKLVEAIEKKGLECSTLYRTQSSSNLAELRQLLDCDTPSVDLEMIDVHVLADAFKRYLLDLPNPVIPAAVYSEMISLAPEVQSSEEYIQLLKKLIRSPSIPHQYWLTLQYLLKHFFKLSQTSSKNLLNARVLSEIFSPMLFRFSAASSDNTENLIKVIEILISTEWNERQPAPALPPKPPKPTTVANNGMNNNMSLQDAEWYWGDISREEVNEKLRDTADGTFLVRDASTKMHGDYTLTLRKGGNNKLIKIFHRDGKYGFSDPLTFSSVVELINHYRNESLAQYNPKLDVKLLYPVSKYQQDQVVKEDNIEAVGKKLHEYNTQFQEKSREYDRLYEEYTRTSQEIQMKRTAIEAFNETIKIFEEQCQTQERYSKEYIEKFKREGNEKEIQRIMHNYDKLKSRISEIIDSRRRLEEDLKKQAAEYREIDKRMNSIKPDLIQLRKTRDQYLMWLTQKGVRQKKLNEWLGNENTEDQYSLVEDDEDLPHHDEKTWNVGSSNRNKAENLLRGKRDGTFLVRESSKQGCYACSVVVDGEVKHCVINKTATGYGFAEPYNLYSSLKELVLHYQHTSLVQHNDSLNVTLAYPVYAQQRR
Kind of assay: PI3 Kinase TR-FRET assay, PI3Kα (wild-type). It is filed as biochemical. A digest of the protocol:
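TR-FRET read-out of PIP3 formation via biotin-PIP3 displacement (665/615 nm ratio) gave IC50 curves. Enzyme: 5 ng wild-type P110/P85α from Sf9 cells, 60 min RT with compound and PIP2 (MgCl2 40 mM, DTT 5 mM), then 30 min RT kinase reaction at 10 μM ATP and 10 μM PIP2.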

For `Cc1ccncc1-c1cnc2c(N3CCOCC3)nc(-c3ccc(NC(=O)Nc4ccc(C(=O)N(C)C)cc4)c(F)c3)nc2c1` [Example 116, 4-(3-(2-fluoro-4-(7-(4-methylpyridin-3-yl)-4-morpholino-pyrido[3,2-d]pyrimidin-2-yl)phenyl)ureido)-N,N-dimethyl-benzamide], the IC50 lay within 501 to 5000 nM in the assay on PC3 cells, 50 to 200 nM on mTOR kinase and 50 to 200 nM in assay [1].

Take `CN(C)C(=O)c1ccc(NC(=O)Nc2ccc(-c3nc(N4CCOCC4)c4ncc(-c5cnn(C)c5)cc4n3)cc2F)cn1` [Example 124, 5-(3-(2-fluoro-4-(7-(1-methyl-1H-pyrazol-4-yl)-4-morpholino-pyrido[3,2-d]pyrimidin-2-yl)phenyl)ureido)-N,N-dimethylpicolinamide]: the IC50 in the assay with PC3 cells was 201 to 10000 nM; at mTOR kinase, below 50 nM; in assay [1] it was below 50 nM.

For `Cc1noc(C)c1-c1cnc2c(N3CCOCC3)nc(-c3ccc(NC(=O)Nc4ccc(C(=O)N(C)C)cc4)c(F)c3)nc2c1` [Example 135, 4-(3-(4-(7-(3,5-dimethylisoxazol-4-yl)-4-morpholino-pyrido[3,2-d]pyrimidin-2-yl)-2-fluorophenyl)ureido)-N,N-dimethyl-benzamide], the IC50 with PC3 cells was 201 to 10000 nM; at mTOR kinase it was below 50 nM; in assay [1] it was below 50 nM.

Take `CC1CN(c2nc(-c3ccc(NC(=O)Nc4ccc(C(=O)N(C)C)cc4)cc3)nc3cc(-c4cncnc4)ccc23)CCO1` (stereo not drawn) [Example 138, N,N-dimethyl-4-(3-(4-(4-(2-methylmorpholino)-7-(pyrimidin-5-yl)quinazolin-2-yl)phenyl)ureido)-benzamide]: the IC50 with PC3 cells was 201 to 10000 nM; at mTOR kinase, below 50 nM; in assay [1] it was below 50 nM.

Regarding `Cc1noc(C)c1-c1cc2nc(-c3ccc(NC(=O)Nc4ccc(C(=O)N(C)C)cc4)cc3)nc(N3CCOCC3)c2cc1F` [Example 143, 4-(3-(4-(7-(3,5-dimethylisoxazol-4-yl)-6-fluoro-4-morpholino-quinazolin-2-yl)phenyl)ureido)-N,N-dimethyl-benzamide], the IC50 in the assay with PC3 cells was 201 to 10000 nM; on mTOR kinase, below 50 nM; in assay [1], 50 to 200 nM.

With `CN(C)C(=O)c1ccc(NC(=O)Nc2ccc(-c3nc(N4CCOCC4)c4ccc(-c5cnc(N(C)C)nc5)cc4n3)cc2)cc1` [Example 226, 4-(3-(4-(7-(2-(dimethylamino)pyrimidin-5-yl)-4-morpholino-quinazolin-2-yl)phenyl)ureido)-N,N-dimethyl-benzamide], the IC50 in the assay with PC3 cells is 201 to 10000 nM; at mTOR kinase, below 50 nM; in assay [1], below 50 nM.

For the compound `CNC(=O)c1ccc(NC(=O)Nc2ccc(-c3nc(N4CCOCC4)c4ccc(-c5ccco5)cc4n3)cc2)cc1` [Example 233, 4-(3-(4-(7-(furan-2-yl)-4-morpholine-quinazolin-2-yl)phenyl)ureido)-N-methyl-benzamide], the IC50 with PC3 cells was below 100 nM; on mTOR kinase, 50 to 200 nM; in assay [1], below 50 nM.

For `CN(C)C(=O)c1ccc(NC(=O)Nc2ccc(-c3nc(N4CCOCC4)c4ccc(-c5cncnc5)cc4n3)cc2)cc1F` [Example 240, 2-fluoro-N,N-dimethyl-4-(3-(4-(4-morpholino-7-(pyrimidin-5-yl)quinazolin-2-yl)phenyl)ureido)-benzamide], the IC50 in the assay with PC3 cells was 201 to 10000 nM; at mTOR kinase, below 50 nM; in assay [1], below 50 nM.

With `CN(C)C(=O)c1ccc(NC(=O)Nc2ccc(-c3nc(N4CCOCC4)c4ccc(-c5cccc(S(C)(=O)=O)c5)cc4n3)c(F)c2)cc1` [Example 245, 4-(3-(3-fluoro-4-(7-(3-(methylsulfonyl)phenyl)-4-morpholino-quinazolin-2-yl)phenyl)ureido)-N,N-dimethyl-benzamide], the IC50 in the assay on PC3 cells was 201 to 10000 nM; on mTOR kinase, 50 to 200 nM; in assay [1], below 50 nM.

With `CN(C)C(=O)c1ccc(NC(=O)Nc2ccc(-c3nc(N4CCOCC4)c4ncc(-c5cncnc5)cc4n3)c(F)c2)cc1` [Example 250, 4-(3-(3-fluoro-4-(4-morpholino-7-(pyrimidin-5-yl)pyrido[3,2-d]pyrimidin-2-yl)phenyl)ureido)-N,N-dimethyl-benzamide], the IC50 was 201 to 10000 nM in the assay on PC3 cells, below 50 nM at mTOR kinase and below 50 nM in assay [1].

Regarding `CN(C)C(=O)c1ccc(NC(=O)Nc2ccc(-c3nc(N4CCOCC4)c4ccc(-c5cccnc5F)cc4n3)cc2)cc1F` [Example 255, 2-fluoro-4-(3-(4-(7-(2-fluoropyridin-3-yl)-4-morpholino-quinazolin-2-yl)phenyl)ureido)-N,N-dimethyl-benzamide], the IC50 with PC3 cells is 201 to 10000 nM; at mTOR kinase it was below 50 nM; in assay [1] it was 50 to 200 nM.

For the compound `CN(C)C(=O)c1ccc(NC(=O)Nc2ccc(-c3nc(N4CCOCC4)c4cc(F)c(-c5cncnc5)cc4n3)c(F)c2)cc1` [Example 256, 4-(3-(3-fluoro-4-(6-fluoro-4-morpholino-7-(pyrimidin-5-yl)quinazolin-2-yl)phenyl)ureido)-N,N-dimethyl-benzamide], the IC50 in the assay with PC3 cells was 201 to 10000 nM; at mTOR kinase, 50 to 200 nM; in assay [1] it was 50 to 200 nM.

For `COc1ncc(-c2ccc3c(N4CCOCC4)nc(-c4ccc(NC(=O)Nc5ccc(C(=O)N(C)C)c(F)c5)cc4)nc3c2)cn1` [Example 257, 2-fluoro-4-(3-(4-(7-(2-methoxypyrimidin-5-yl)-4-morpholino-quinazolin-2-yl)phenyl)ureido)-N,N-dimethyl-benzamide], the IC50 in the assay on PC3 cells is 201 to 10000 nM; at mTOR kinase it was below 50 nM; in assay [1], below 50 nM.

Take `COc1ccc(-c2ccc3c(N4CCOCC4)nc(-c4ccc(NC(=O)Nc5ccc(C(=O)N(C)C)c(F)c5)cc4)nc3c2)cn1` [Example 259, 2-fluoro-4-(3-(4-(7-(6-methoxypyridin-3-yl)-4-morpholino-quinazolin-2-yl)phenyl)ureido)-N,N-dimethyl-benzamide]: the IC50 in the assay with PC3 cells was 201 to 10000 nM; at mTOR kinase it was below 50 nM; in assay [1] it was 50 to 200 nM.

As to `CN(C)C(=O)c1ccc(NC(=O)Nc2ccc(-c3nc(N4CCOCC4)c4ccc(-c5cccnc5)cc4n3)cc2)cc1F` [Example 260, 2-fluoro-N,N-dimethyl-4-(3-(4-(4-morpholino-7-(pyridin-3-yl)quinazolin-2-yl)phenyl)ureido)-benzamide], the IC50 is 201 to 10000 nM in the assay on PC3 cells, below 50 nM at mTOR kinase and below 50 nM in assay [1].

As for `CN(C)C(=O)c1ccc(NC(=O)Nc2ccc(-c3nc(N4CCOCC4)c4ccc(-c5ccco5)cc4n3)cc2)cc1F` [Example 265, 2-fluoro-4-(3-(4-(7-(furan-2-yl)-4-morpholino-quinazolin-2-yl)phenyl)ureido)-N,N-dimethyl-benzamide], the figures for the IC50 (with PC3 cells; on mTOR kinase; in assay [1]) were below 100 nM, 50 to 200 nM and 50 to 200 nM, respectively.

With `CN(C)C(=O)c1ccc(NC(=O)Nc2ccc(-c3nc(N4CCOCC4)c4ccc(-c5ccc(CO)o5)cc4n3)c(F)c2)cc1` [Example 274, 4-(3-(3-fluoro-4-(7-(5-(hydroxymethyl)furan-2-yl)-4-morpholino-quinazolin-2-yl)phenyl)ureido)-N,N-dimethyl-benzamide], the values for the IC50 (with PC3 cells; at mTOR kinase; in assay [1]) were 201 to 10000 nM, 50 to 200 nM and below 50 nM, respectively.

For `CC(O)c1ccc(-c2ccc3c(N4CCOCC4)nc(-c4ccc(NC(=O)Nc5ccc(C(=O)N(C)C)cc5)cc4F)nc3c2)o1` (stereo not drawn) [Example 275, 4-(3-(3-fluoro-4-(7-(5-(1-hydroxyethyl)furan-2-yl)-4-morpholino-quinazolin-2-yl)phenyl)ureido)-N,N-dimethyl-benzamide], the IC50 with PC3 cells is 201 to 10000 nM; at mTOR kinase, below 50 nM; in assay [1], 50 to 200 nM.

`CN(C)C(=O)c1ccc(NC(=O)Nc2ccc(-c3nc(N4CCOCC4)c4ccc(-c5cncnc5)cc4n3)c(F)c2F)cc1` [Example 280, 4-(3-(2,3-difluoro-4-(4-morpholino-7-(pyrimidin-5-yl)quinazolin-2-yl)phenyl)ureido)-N,N-dimethyl-benzamide]: the IC50 in the assay on PC3 cells is below 100 nM; on mTOR kinase, below 50 nM; in assay [1], 50 to 200 nM.

Consider `CN(C)C(=O)c1ccc(NC(=O)Nc2ccc(-c3nc(N4CCOCC4)c4ccc(-c5ccco5)cc4n3)c(F)c2F)cc1` [Example 282, -(3-(2,3-difluoro-4-(7-(furan-2-yl)-4-morpholino-quinazolin-2-yl)phenyl)ureido)-N,N-dimethyl-benzamide], for which the figures for the IC50 (in the assay with PC3 cells; at mTOR kinase; in assay [1]) were below 100 nM, 201 to 10000 nM and 50 to 200 nM, respectively.
